Results from patent US20130267606A1, “USE OF VITAMIN K FOR WEIGHT MAINTENANCE AND WEIGHT CONTROL” (VITAK B.V., priority 2011, published 2013).
Where two headings read alike, the source gives them in different places.

Assays:
[1] = vitamin K2 (MK-7) dose-response study, circulating osteocalcin and adiponectin (Example 2); format: in vivo, human
[2] = placebo controlled 3-year randomized trial of vitamin K2 (MK-7) on body weight and BMI in postmenopausal women (Example 4); format: in vivo, human
Description: 250 apparently healthy postmenopausal women (age range: 55-75 years) were recruited in a placebo controlled 3-year randomized trial to investigate the influence of vitamin K2 (MK-7, 180 μg/day) on body weight and BMI. Exclusion criteria were: BMI>30 kg/m^2, a medical history or use of drugs known to interfere with vitamin K-, calcium- and/or glucose-metabolism. Body height was measured using a wall-mounted stadiometer. Body weight was measured to the nearest 0.1 kg with participants wearing light clothing and no shoes. Body mass index (BMI) was calculated as body weight (kg) divided by the square of height (m^2). Statistical analysis was performed using the statistical package (SPSS vs 17.0 Corp, Chicago, Ill.). […] In the unpaired t-test the difference in response to treatment was statistically significant at P<0.005 after 3 years.

[3] = placebo controlled 2-year randomized trial of vitamin K1 on body weight and BMI during and after weight reduction intervention (Example 5); format: in vivo, human; conditions: vitamin K1 1 mg/day
Description: 120 apparently healthy but overweight subjects (age range: 35-60 years, 52 men, 68 women) were recruited in a placebo controlled 2-year randomized trial to investigate the influence of vitamin K1 (1 mg/day) on body weight and BMI during and after a 6-month intervention aiming significant weight reduction. At the start of the study participants were randomized to receive either placebo or vitamin K for 24 months. All participants received extensive dietary counselling and were motivated to increase their physical exercise during the first 6 months of the study, with personal contact once weekly. After this initial period, counselling was stopped, but vitamin K/placebo treatment was continued for another 18 months, while participants visited our institute every half year. Inclusion criteria were: apparently healthy, BMI between 25 and 35 kg/m^2, Exclusion criteria were: a medical history or use of drugs known to interfere with vitamin K-, calcium- and/or glucose-metabolism. Body height was measured using a wall-mounted stadiometer. Body weight was measured to the nearest 0.1 kg with participants wearing light clothing and no shoes. Body mass index (BMI) was calculated as body weight (kg) divided by the square of height (m^2). Statistical analysis was performed using the statistical package (SPSS vs 17.0 Corp, Chicago, Ill.).

adipogenesis = conditions: in vitro; cited from earlier work
[4] = after 3 years of supplementation, cited from earlier work
[5] = 1 year of supplementation, healthy postmenopausal women; cited from earlier work
[6] = placebo controlled randomized 3-year trial of vitamin K2 (MK-4) on BMI and serum markers in postmenopausal women (Example 3); format: in vivo, human; conditions: for serum ucOC / serum cOC: mean±SD
[7] = 62.5 mg/kg body weight per day, rats; cited from earlier work
[8] = second phase of the study (18 months)

Compound: CC(C)=CCC/C(C)=C/CC/C(C)=C/CC/C(C)=C/CC/C(C)=C/CC/C(C)=C/CC/C(C)=C/CC1=C(C)C(=O)c2ccccc2C1=O [MK-7]
- ucOC/cOC ratio ([1]; MK-7 45-360 μg per day for 12 weeks, effect even at 45 μg/day): significant decrease
- circulating ucOC ([1]; MK-7 45-360 μg per day for 12 weeks, effect even at 45 μg/day, healthy men and premenopausal women): significant decrease
- circulating adiponectin ([1]; nutritional levels of MK-7, 12 weeks): does not affect
- effect on body weight and BMI ([2]; nutritionally relevant intake, MK-7 180 μg/day, 3 years, versus placebo increase): maintenance of body weight and BMI

Compound: CC1=C(C/C=C(\C)CCC[C@H](C)CCC[C@H](C)CCCC(C)C)C(=O)c2ccccc2C1=O [vitamin K1, phylloquinone]
- decrease of average body weight and BMI versus placebo ([3]; first 6 months with dietary counselling and exercise): non-significant better performance
- average weight gain versus placebo group ([3]; following 18 months (second phase), p<0.05): significantly lower
- participants returned to their starting weight [3, 8]: 7 participants
- participants without significant weight gain [3, 8]: 28 participants
- adipogenesis (adipogenesis): not
- progression of insulin resistance ([4]; older men): reduced
- progression of insulin resistance ([4]; women): not
- glucose metabolism [5]: did not alter

Compound: CC(C)=CCC/C(C)=C/CC/C(C)=C/CC/C(C)=C/CC1=C(C)C(=O)c2ccccc2C1=O [MK-4]
- UCR (ucOC/cOC ratio) ([6]; after 3 years MK-4 45 mg/day): 0.12±0.15
- decrease of UCR ([6]; after 3 years MK-4 45 mg/day versus baseline, P<0.0001): 74±22%
- serum ucOC ([6]; after 3 years MK-4 45 mg/day, P<0.0001): 0.8 ± 1.0 ng/mL
- serum cOC ([6]; after 3 years MK-4 45 mg/day, P=0.046): 6.9 ± 2.3 ng/mL
- circulating adiponectin ([6]; after 3 years MK-4 45 mg/day, no significant difference to placebo (P=0.224)): 13.1 ± 8.3 µg/mL
- BMI ([6]; after 3 years MK-4 45 mg/day, non-significant increase (P=0.463)): 27.2±0.3 kg/m^2
- BMI ([6]; baseline, MK-4 group): 27.1±0.3 kg/m^2
- UCR (ucOC/cOC ratio) ([6]; baseline, MK-4 group): 0.54±0.35
- serum cOC ([6]; baseline, MK-4 group): 6.4 ± 2.5 ng/mL
- serum ucOC ([6]; baseline, MK-4 group): 3.2 ± 1.9 ng/mL
- circulating adiponectin ([6]; baseline, MK-4 group, no significant difference to placebo (P=0.562)): 14.2 ± 9.7 µg/mL
- average body weight ([6]; remained constant over 3 years MK-4 45 mg/day): 70.3 ± 0.9 kg
- BMI ([2]; after 3 years supplementation (180 μg/day), P=0.463): 25.4±3.0 kg/m^2
- average body weight ([2]; after 3 years supplementation (180 μg/day), non-significant change): 67.4 kg
- BMI ([2]; baseline, treated group): 25.2±2.8 kg/m^2
- average body weight ([2]; baseline, treated group): 66.9 kg
- adipogenesis (adipogenesis): inhibited
- osteoblastic differentiation (adipogenesis): stimulated

Compound: menaquinone [vitamin K2]
- effect in animal model for auto-immune disease [7]: protective
